system: desmoglein in a stratum corneum sheet (decomposition by trypsin-like and chymotrypsin-like enzymes); test: Percentage of residual desmoglein in stratum corneum sheets (SDS-PAGE / immunoblot with anti-desmoglein antibody); assay type: biochemical, human; conditions: stratum corneum sheet (2 mg) from healthy subjects coated with 5 μl of a 5% aqueous solution of test compound; moisture content not greater than 30%; 37° C. for one week; average of three measurements; control = 100.00
Procedure: Method of Evaluation (the percentage of residual desmoglein in stratum corneum sheets) This method of evaluation serves to evaluate the degree of decomposition of desmoglein in a stratum corneum sheet by trypsin-like and chymotrypsin-like enzymes, i.e., the degree of stratum corneum desquamation. […] Stratum corneum sheets were peeled from healthy subjects and soaked in an antiseptic and fungicidal solution (containing 60 μl/ml of kanamycin and 0.5% NaN3) for 30 seconds. Both sides of a stratum corneum sheet weighing 2 mg were coated with 5 μl of a 5% aqueous solution containing each of the test compounds shown in Table I below. A stratum corneum sheet coated with an aqueous solution containing no test compound was regarded as a control. These stratum corneum sheets were subjected to the following procedure. The stratum corneum sheets prepared in the above-described manner were placed under such conditions that the stratum corneum would have a moisture content of not greater than 30% at which the degradation of desmosomes was insufficient, and allowed to stand at 37° C. for one week. Thereafter, using 0.5 ml of a 0.1 M Tris buffer (pH 9) containing 9 M urea, 2% SDS and 1% mercaptoethanol, each of the stratum corneum sheets was extracted at 37° C. for 15 hours. Then, 0.7 ml of a sample buffer for SDS-PAGE (a two-fold concentrated Laemmli solution) was added to the resulting extract and heated for 15 minutes. 10 μl of this solution was taken and subjected to electrophoresis in a gel having a concentration of 7.5%. After electrophoresis, the proteins were transferred to a PVDF membrane and immunologically stained with an anti-desmoglein antibody and alkaline phosphatase-labelled secondary (anti-mouse lg) antibody. Then, the labelled protein was visualized with NBT/BCIP substrate. Thus, the amount of the desired protein was determined. Then, the above evaluation process was repeated except that the above-mentioned 5% aqueous solution of each of the test compounds was replaced with an aqueous solution which had been adjusted to contain 0.1% of L-alanine and 2.9% of N,N,N-trimethylglycine.

Point of comparison: NC(CO)C(=O)O (racemic) [DL-Serine], “Percentage of residual desmoglein” value 69.44%. Against it:
- C[C@@H](O)[C@H](N)C(=O)O (racemic) [DL-Threonine] — higher, 97.50%
- C[C@@H](O)[C@H](N)C(=O)O [L-Threonine] — higher, 90.91%
- NCC(=O)O [Glycine] — higher, 84.13%
- CC(N)C(=O)O (racemic) [DL-Alanine] — lower, 54.55%
- O=C(O)[C@@H]1CC(O)CN1 (stereo partly drawn) [4-Hydroxy-L-proline] — higher, 83.04%
- C[N+](C)(C)CC(=O)[O-] [N,N,N-Trimethylglycine] — higher, 86.08%
- CCCCCCCCCCCC(=O)NCC(=O)[O-].[K+] [N-Dodecanoylglycine potassium salt] — higher, 78.58%
- N[C@@H](CO)C(=O)O [L-Serine] — lower, 58.41%

From US20020041889A1, “ENHANCING AGENT FOR DEGRADATION OF DESMOSOMES OR STRATUM CORNEUM DESQUAMATION” (priority 1997, published 2002)
